What was measured:
MCF-10A = experiment: Cytotoxicity against human MCF-10A cells assessed as inhibition of cell proliferation measured after 72 hrs by CCK-8 assay; type: cell-based
MDA-MB-231 = experiment: Antiproliferative activity against human MDA-MB-231 cells assessed as inhibition of cell proliferation measured after 72 hrs by CCK-8 assay; type: functional, cell-based; settings: MDA-MB-231, 72 h
MCF7 = experiment: Antiproliferative activity against human MCF7 cells assessed as inhibition of cell proliferation measured after 72 hrs by CCK-8 assay; type: functional, cell-based; settings: MCF7, 72 h

Question: Which results are given for COC(=O)[C@H](Cc1ccc(N(CCCl)CCCl)cc1)NC(=O)CCCC(=O)OCc1cc2c([nH]c3ccccc32)c(C)n1?
Answer: IC50 (MCF-10A): > 40 µM; IC50 (MDA-MB-231): > 20 µM; IC50 (MCF7): > 20 µM

Question: With Cc1nc(COC(=O)c2ccc(N(CCCl)CCCl)cc2)cc2c1[nH]c1ccccc12 as the compound, how does the IC50 (MCF-10A) read?
Answer: The IC50 was 26.4 µM.

Question: And the IC50 (MDA-MB-231)?
Answer: The IC50 was 7.48 µM.

Question: What about the IC50 (MCF7) of the same compound?
Answer: The IC50 was 3.78 µM.

Question: For COc1ccc(-c2nc(COC(=O)c3ccc(N(CCCl)CCCl)cc3)cc3c2[nH]c2ccccc23)cc1, which IC50 (MCF-10A) is on record?
Answer: Its IC50 is 35.1 µM.

Question: And the IC50 (MDA-MB-231)?
Answer: The IC50 was 14.5 µM.

Question: And the IC50 (MCF7)?
Answer: Its IC50 is 2.35 µM.

Question: How did the IC50 (MCF-10A) turn out when Cc1nc(CO)cc2c1[nH]c1ccccc12 was run?
Answer: Its IC50 is over 40 µM.

Question: And the IC50 (MDA-MB-231)?
Answer: Its IC50 is over 20 µM.

Question: And the IC50 (MCF7)?
Answer: The IC50 was 11.3 µM.

Question: Which results are given for CC(C)(C)OC(=O)N[C@@H](Cc1ccc(N(CCCl)CCCl)cc1)C(=O)OCc1cc2c(cn1)[nH]c1ccccc12?
Answer: IC50 (MCF-10A): > 40 µM; IC50 (MDA-MB-231): 16.9 µM; IC50 (MCF7): 3.43 µM

Question: For N[C@@H](Cc1ccc(N(CCCl)CCCl)cc1)C(=O)O [MELPHALAN], which IC50 (MCF-10A) is on record?
Answer: The IC50 was over 40 µM.

Question: And the IC50 (MDA-MB-231)?
Answer: The IC50 was over 20 µM.

Question: And the IC50 (MCF7)?
Answer: The IC50 was 8.48 µM.

Question: Which results are given for COC(=O)[C@H](Cc1ccc(N(CCCl)CCCl)cc1)NC(=O)CCCC(=O)OCc1cc2c([nH]c3ccccc32)c(-c2ccc(OC)cc2)n1?
Answer: IC50 (MCF-10A): > 40 µM; IC50 (MDA-MB-231): > 20 µM; IC50 (MCF7): > 20 µM

Question: For COC(=O)[C@H](Cc1ccc(N(CCCl)CCCl)cc1)NC(=O)CCC(=O)OCc1cc2c(cn1)[nH]c1ccccc12, which IC50 (MCF-10A) is on record?
Answer: The IC50 was over 40 µM.

Question: What about the IC50 (MDA-MB-231) of the same compound?
Answer: Its IC50 is over 20 µM.

Question: What about the IC50 (MCF7) of the same compound?
Answer: Its IC50 is over 20 µM.

Question: For O=CN[C@@H](Cc1ccc(N(CCCl)CCCl)cc1)C(=O)OCc1cc2c(cn1)[nH]c1ccccc12, which IC50 (MCF-10A) is on record?
Answer: Its IC50 is 25.7 µM.

Question: What about the IC50 (MDA-MB-231) of the same compound?
Answer: The IC50 was 6.53 µM.

Question: What about the IC50 (MCF7) of the same compound?
Answer: Its IC50 is 2.7 µM.

Question: COc1ccc(-c2nc(CO)cc3c2[nH]c2ccccc23)cc1 was tested. Which IC50 (MCF-10A) did it give?
Answer: Its IC50 is over 40 µM.

Question: And the IC50 (MDA-MB-231)?
Answer: The IC50 was over 20 µM.

Question: What about the IC50 (MCF7) of the same compound?
Answer: The IC50 was 15.8 µM.

— ChEMBL document CHEMBL4834486 (Bioorg Med Chem, 2021)
